Laboratory results taken from patent publication US20130164792A1, “METHOD FOR PRODUCING CRYSTALS OF MUTIVALENT METAL SALT OF (2R, 4R) MONATIN” (Ajinomoto Co., Inc., priority 2011, published 2013).

B1: Rac39: racemase (SEQ ID NO:2) with C-terminal His tag, expressed in E. coli, converts (2S,4R)Monatin into (2R,4R)Monatin (protein)
chain: MAETNLHKKINIEMHFDNLVSNFEKIRKLNNENVDVADKVIPVVKANAYNFGVYDITKTFLSMKEPQTKFFVFSLEEGIELRKFFPSIERIFVIMGALENDAELFKKYNLTPVVNSFYQLEVCKKHNIKNIVLQFNTGMNRNGFEVKELRKVKQICDSEKFNVLMVMSHFACSDNMASEVNAYQINEYKKVARVFNDKKIIKSFPATFGILNFNTINGLVNSFRPGRLYYGFLPKEGYDKNLFSVYVYLSKDKEGNIILPFGKEDGIDYGEQAYILVDKNKAYVKQVDSHKVILDTNDKTLVGKKVYLIKNGMGYDEFKEQSKQDLLTFFGKIFKNCDKNKNLCNINATRKRAKKDNKFVPKAIFKKDAKGQYTQYTTTLFEKREVSADGIVGYDATRAVKKGDKLGVIFNGHMDGFYQPMSNKHVFVYVKNKYKQLIPCEFYGLISSDQAVIKIPNDEFDNIEYGAKVVVFDKNHPITLFEQATGVSRDELFYGLDKTYRIAEQK
modifications: C-terminal His tag; Obtained from environmental sample

Experiments:
[1] = Measurement of solubility of Monatin metal salt in water; type: physicochemical; conditions: 1 g salt added to 1 g water, stirred at 25° C., filtrate analyzed by HPLC
Protocol: Solubility of a (2S,4R)Monatin potassium salt and a (2R,4R)Monatin potassium salt in water (H2O) was measured. 1 g of the (2S,4R)Monatin potassium salt or 1 g of the (2R,4R)Monatin potassium salt was added to 1 g of the water, the mixture was stirred at 25° C., a slurry was filtrated out, and the resulting filtrate was analyzed by HPLC. […] The solubility of the (2R,4R)Monatin potassium salt was higher than the solubility of the (2S,4R)Monatin potassium salt.
Then, Solubility of a (2S,4R)Monatin magnesium salt and a (2R,4R)Monatin magnesium salt in the water was measured. The solubility was measured in the same manner as above. For the (2S,4R)Monatin magnesium salt, firstly, the same amount of magnesium chloride was added to the (2S, 4R)Monatin potassium salt, and then ethanol was further added thereto. Then, the resulting slurry was filtrated and the wet crystal was dried under reduced pressure to prepare the (2S,4R)Monatin magnesium salt. For the (2R, 4R)Monatin magnesium salt, firstly, the same amount of magnesium chloride was added to the (2R,4R)Monatin potassium salt, and then methanol was further added thereto. Then, the resulting slurry was filtrated and the wet crystal was dried under reduced pressure to prepare the (2R, 4R)Monatin magnesium salt.

[2] = Patent Literature 1; cited from earlier work
[3] = Isomerization reaction using (2S,4R)Monatin or (2R,4R)Monatin as substrate with purified racemase; type: biochemical; conditions: 50 μM PLP, 100 mM Tris-HCl (pH 8.0), 0.72 mg/mL enzyme, 25° C., 15 minutes, 1 U = 1 μmol Monatin isomerized per minute
Protocol: A reaction was carried out for 15 minutes using the purified racemase under the following condition. The reaction was carried out in 0.1 mL using an Eppendorf tube. After the reaction was terminated, an equal amount of a reaction stopping solution, 200 mM sodium citrate solution (pH 4.5) was added to the sample. HPLC was used for the analysis.
Reaction condition: 20 mM (2S,4R)Monatin or (2R,4R)Monatin, 50 μM PLP, 100 mM Tris-HCl (pH 8.0), 0.72 mg/mL racemase purified enzyme, 25° C., 120 rpm.
The (2S,4R)Monatin and the (2R,4R)Monatin were quantified by HPLC analysis. An analysis condition is as shown below.
Mobile phase: 20 mM KH2PO4/acetonitrile=100/5 Flow rate: 1.0 mL/minute Column temperature: 40° C.

| Molecule | solubility in water [1] | further results |
| --- | --- | --- |
| N[C@@H](C[C@](O)(Cc1c[nH]c2ccccc12)C(=O)O)C(=O)[O-].[K+] [(2S,4R)Monatin potassium salt] | 20.1 % by weight | – |
| N[C@@H](C[C@](O)(Cc1c[nH]c2ccccc12)C(=O)O)C(=O)[O-].N[C@@H](C[C@](O)(Cc1c[nH]c2ccccc12)C(=O)O)C(=O)[O-].[Mg+2] [(2S,4R)Monatin magnesium salt] | 14.5 % by weight | – |
| N[C@H](C[C@](O)(Cc1c[nH]c2ccccc12)C(=O)O)C(=O)[O-].N[C@H](C[C@](O)(Cc1c[nH]c2ccccc12)C(=O)O)C(=O)[O-].[Mg+2] [(2R,4R)Monatin magnesium salt] | 1.6 % by weight | – |
| N[C@@H](C[C@@](O)(Cc1c[nH]c2ccccc12)C(=O)O)C(=O)O (single isomer, unassigned) [(2S,4S) isomer of 4-hydroxy-4-(3-indolylmethyl)-2-aminoglutaric acid] | – | sweetness compared with sucrose [2]: several hundreds times sweeter than sucrose |
| N[C@H](C[C@](O)(Cc1c[nH]c2ccccc12)C(=O)O)C(=O)[O-].[K+] [(2R,4R)Monatin potassium salt] | 37.8 % by weight | – |
| B1 | – | activity to form the (2S,4R)Monatin from the (2R,4R)Monatin ([3]; 20 mM (2R,4R)Monatin): 0.09 U/mg; activity to form the (2R,4R)Monatin from the (2S,4R)Monatin ([3]; 20 mM (2S,4R)Monatin): 0.14 U/mg |
